Laboratory results taken from ChEMBL document CHEMBL4229497, “Design and synthesis of benzofuro[3,2-b]pyridin-2(1H)-one derivatives as anti-leukemia agents by inhibiting Btk and PI3Kδ” (Bioorg Med Chem, 2018).
Activity calls are given as the source filed them. The rule behind the calls is not given here.

Key:
Raji [1] = experiment: Antiproliferative activity against human Raji cells after 48 hrs by MTT assay; assay type: functional, cell-based
HL-60 [2] = experiment: Antiproliferative activity against human HL60 cells after 48 hrs by MTT assay; assay type: functional, cell-based; conditions: HL-60, 48 h
K562 [3] = experiment: Antiproliferative activity against human K562 cells after 48 hrs by MTT assay; assay type: functional, cell-based; conditions: K562, 48 h
HL-60 [4] = experiment: Antiproliferative activity against human HL60 cells at 40 uM after 48 hrs by MTT assay relative to control; assay type: functional
Raji [5] = experiment: Antiproliferative activity against human Raji cells at 40 uM after 48 hrs by MTT assay relative to control; assay type: functional
K562 [6] = experiment: Antiproliferative activity against human K562 cells at 40 uM after 48 hrs by MTT assay relative to control; assay type: functional
[7] = Inhibition of PI3K (unknown origin); design: species or system Homo sapiens
[8] = molecular target: PI3-kinase p110-delta/p85-alpha (Homo sapiens) (UniProt P27986+O00329); experiment: Inhibition of recombinant human full length N-terminal His-tagged PI3K p110delta/p85alpha at 200 nM using lipid substrate after 60 mins by ADP-Glo assay relative to control; assay type: protein-complex assay
K562 [9] = experiment: Inhibition of PI3K/Akt/mTOR pathway in human K562 cells assessed as reduction in Akt phosphorylation at Ser-473 residue at 1 uM after 24 hrs by Western blot analysis; assay type: cell-based
[10] = molecular target: PI3-kinase p110-alpha/p85-alpha (Homo sapiens, UniProt P42336); experiment: Inhibition of recombinant human full length His-tagged PI3K p110alpha/p85alpha expressed in baculovirus expression system using lipid substrate after 60 mins by ADP-Glo assay
[11] = molecular target: Serine/threonine-protein kinase mTOR (Homo sapiens, UniProt P42345); experiment: Inhibition of recombinant human N-terminal FLAG-tagged mTOR (1362-end residues)
[12] = molecular target: T1, Phosphatidylinositol 4,5-bisphosphate 3-kinase catalytic subunit gamma isoform (Homo sapiens, UniProt P48736); experiment: Inhibition of recombinant human full length His-tagged PI3K p110gamma expressed in baculovirus expression system using lipid substrate after 60 mins by ADP-Glo assay
[13] = molecular target: PI3-kinase p110-delta/p85-alpha (Homo sapiens, UniProt O00329); experiment: Inhibition of recombinant human full length N-terminal His-tagged PI3K p110delta/p85alpha using lipid substrate after 60 mins by ADP-Glo assay; assay type: protein-complex assay
[14] = molecular target: Tyrosine-protein kinase BTK (Homo sapiens, UniProt Q06187); experiment: Inhibition of recombinant full length human N-terminal His tagged BTK expressed in baculovirus infected Sf9 cells using poly (4:1 Glu, Tyr) as substrate after 60 mins by ADP-Glo assay
PI3K p110 beta/p85 alpha = PI3K p110 beta/p85 alpha (Homo sapiens, UniProt P42338); experiment: Inhibition of recombinant full length human N-terminal His6-tagged PI3K p110beta/p85alpha expressed in baculovirus infected Sf21 cells using lipid substrate after 60 mins by ADP-Glo assay
[15] = molecular target: Phosphatidylinositol 4,5-bisphosphate 3-kinase catalytic subunit alpha isoform (Homo sapiens, UniProt P42336); experiment: Inhibition of PI3Kalpha (unknown origin)
[16] = molecular target: Phosphatidylinositol 4,5-bisphosphate 3-kinase catalytic subunit beta isoform (Homo sapiens, UniProt P42338); experiment: Inhibition of PI3Kbeta (unknown origin)
[17] = molecular target: T1, Phosphatidylinositol 4,5-bisphosphate 3-kinase catalytic subunit gamma isoform; experiment: Inhibition of PI3Kgamma (unknown origin)

Sequence of Tyrosine-protein kinase BTK (Q06187 whole entry): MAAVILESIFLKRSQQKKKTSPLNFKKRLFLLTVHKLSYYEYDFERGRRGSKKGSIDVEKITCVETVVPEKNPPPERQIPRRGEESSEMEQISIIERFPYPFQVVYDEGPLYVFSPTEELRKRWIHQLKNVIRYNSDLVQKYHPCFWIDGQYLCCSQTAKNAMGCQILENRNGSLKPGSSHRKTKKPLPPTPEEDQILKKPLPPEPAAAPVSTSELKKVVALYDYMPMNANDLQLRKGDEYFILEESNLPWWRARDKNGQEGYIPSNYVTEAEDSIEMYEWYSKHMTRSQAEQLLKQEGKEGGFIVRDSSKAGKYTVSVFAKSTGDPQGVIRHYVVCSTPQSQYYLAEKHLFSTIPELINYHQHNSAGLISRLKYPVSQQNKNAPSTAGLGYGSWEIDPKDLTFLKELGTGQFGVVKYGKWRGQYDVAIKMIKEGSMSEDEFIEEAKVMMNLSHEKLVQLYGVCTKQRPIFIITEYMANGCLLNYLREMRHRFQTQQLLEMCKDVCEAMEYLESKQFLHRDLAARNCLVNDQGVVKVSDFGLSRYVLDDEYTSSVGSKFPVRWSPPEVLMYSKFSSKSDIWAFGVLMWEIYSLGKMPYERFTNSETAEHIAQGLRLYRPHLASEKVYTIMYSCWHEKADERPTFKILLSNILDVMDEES
T1 sequence (P48736 whole entry, canonical isoform): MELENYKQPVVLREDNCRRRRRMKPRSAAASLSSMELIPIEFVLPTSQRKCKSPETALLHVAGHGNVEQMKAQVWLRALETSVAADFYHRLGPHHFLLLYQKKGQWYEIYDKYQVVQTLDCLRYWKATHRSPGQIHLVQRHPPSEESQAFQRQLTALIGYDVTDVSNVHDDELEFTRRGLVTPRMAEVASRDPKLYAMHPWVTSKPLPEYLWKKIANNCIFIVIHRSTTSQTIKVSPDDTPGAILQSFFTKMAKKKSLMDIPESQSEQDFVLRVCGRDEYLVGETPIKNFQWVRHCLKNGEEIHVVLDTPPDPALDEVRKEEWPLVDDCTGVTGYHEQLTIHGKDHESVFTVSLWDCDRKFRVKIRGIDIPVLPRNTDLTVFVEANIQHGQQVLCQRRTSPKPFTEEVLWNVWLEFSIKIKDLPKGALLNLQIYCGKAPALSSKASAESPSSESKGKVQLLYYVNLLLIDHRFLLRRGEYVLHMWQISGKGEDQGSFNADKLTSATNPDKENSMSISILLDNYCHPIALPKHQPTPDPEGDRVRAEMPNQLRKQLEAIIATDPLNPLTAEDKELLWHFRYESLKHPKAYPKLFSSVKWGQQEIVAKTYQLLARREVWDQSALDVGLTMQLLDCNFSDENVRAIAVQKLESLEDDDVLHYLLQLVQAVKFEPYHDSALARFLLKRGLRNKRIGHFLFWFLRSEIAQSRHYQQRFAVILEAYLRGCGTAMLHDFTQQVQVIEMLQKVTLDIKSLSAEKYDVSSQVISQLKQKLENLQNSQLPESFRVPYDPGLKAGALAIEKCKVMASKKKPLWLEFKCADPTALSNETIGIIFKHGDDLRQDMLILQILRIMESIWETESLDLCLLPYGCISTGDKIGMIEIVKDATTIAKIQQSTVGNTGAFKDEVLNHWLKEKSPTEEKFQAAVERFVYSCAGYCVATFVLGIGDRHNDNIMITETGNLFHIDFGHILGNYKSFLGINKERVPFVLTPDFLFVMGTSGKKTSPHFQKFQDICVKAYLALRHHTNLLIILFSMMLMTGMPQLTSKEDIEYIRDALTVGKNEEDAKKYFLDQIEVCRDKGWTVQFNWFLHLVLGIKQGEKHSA
Sequence of PI3-kinase p110-delta/p85-alpha (P27986 whole entry): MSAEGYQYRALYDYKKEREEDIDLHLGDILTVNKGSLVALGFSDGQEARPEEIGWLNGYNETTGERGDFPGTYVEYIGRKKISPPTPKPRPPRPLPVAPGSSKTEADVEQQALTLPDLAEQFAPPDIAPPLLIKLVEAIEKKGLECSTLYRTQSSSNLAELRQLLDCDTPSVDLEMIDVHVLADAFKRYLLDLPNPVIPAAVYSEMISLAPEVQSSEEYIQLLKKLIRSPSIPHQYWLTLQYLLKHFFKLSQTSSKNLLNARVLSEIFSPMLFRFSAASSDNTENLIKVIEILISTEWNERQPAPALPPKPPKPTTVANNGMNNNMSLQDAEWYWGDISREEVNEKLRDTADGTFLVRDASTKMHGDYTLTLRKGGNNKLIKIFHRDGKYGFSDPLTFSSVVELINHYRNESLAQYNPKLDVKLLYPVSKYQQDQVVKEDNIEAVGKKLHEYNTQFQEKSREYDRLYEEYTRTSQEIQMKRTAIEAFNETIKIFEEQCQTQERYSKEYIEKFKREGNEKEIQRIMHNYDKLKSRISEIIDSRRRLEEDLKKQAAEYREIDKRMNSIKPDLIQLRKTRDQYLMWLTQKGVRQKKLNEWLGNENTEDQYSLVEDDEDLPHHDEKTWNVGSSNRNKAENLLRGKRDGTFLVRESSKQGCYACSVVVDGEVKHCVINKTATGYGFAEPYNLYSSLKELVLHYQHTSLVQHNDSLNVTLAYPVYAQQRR
Sequence of PI3-kinase p110-delta/p85-alpha (O00329 whole entry): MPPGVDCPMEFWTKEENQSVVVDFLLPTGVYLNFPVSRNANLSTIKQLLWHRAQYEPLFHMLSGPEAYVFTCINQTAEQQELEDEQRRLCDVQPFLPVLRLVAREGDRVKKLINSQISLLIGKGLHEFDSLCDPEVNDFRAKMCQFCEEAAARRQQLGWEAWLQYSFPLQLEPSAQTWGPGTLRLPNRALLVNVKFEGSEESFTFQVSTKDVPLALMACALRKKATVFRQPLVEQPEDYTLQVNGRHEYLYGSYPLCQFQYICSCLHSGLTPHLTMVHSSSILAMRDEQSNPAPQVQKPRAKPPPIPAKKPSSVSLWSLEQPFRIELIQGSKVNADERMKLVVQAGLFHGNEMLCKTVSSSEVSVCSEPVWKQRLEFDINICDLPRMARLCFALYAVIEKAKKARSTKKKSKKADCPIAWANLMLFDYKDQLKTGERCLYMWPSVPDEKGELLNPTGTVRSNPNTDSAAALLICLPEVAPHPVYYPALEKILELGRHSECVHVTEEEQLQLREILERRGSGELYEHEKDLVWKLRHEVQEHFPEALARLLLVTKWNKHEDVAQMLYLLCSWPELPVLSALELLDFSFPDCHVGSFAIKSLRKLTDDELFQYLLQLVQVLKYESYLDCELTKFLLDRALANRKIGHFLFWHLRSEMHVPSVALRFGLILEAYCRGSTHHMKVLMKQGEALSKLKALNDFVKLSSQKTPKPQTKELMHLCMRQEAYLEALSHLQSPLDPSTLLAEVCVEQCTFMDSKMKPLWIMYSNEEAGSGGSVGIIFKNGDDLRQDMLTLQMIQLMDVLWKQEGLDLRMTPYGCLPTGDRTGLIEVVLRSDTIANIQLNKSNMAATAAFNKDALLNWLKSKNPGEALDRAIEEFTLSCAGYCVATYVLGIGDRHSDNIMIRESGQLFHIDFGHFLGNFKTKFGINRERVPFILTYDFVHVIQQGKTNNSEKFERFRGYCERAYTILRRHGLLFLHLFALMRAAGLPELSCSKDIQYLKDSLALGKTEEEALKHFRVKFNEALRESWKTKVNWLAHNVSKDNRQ
Sequence of PI3-kinase p110-alpha/p85-alpha (P27986 whole entry): as the sequence (P27986 whole entry) above
Sequence of PI3-kinase p110-alpha/p85-alpha (P42336 whole entry): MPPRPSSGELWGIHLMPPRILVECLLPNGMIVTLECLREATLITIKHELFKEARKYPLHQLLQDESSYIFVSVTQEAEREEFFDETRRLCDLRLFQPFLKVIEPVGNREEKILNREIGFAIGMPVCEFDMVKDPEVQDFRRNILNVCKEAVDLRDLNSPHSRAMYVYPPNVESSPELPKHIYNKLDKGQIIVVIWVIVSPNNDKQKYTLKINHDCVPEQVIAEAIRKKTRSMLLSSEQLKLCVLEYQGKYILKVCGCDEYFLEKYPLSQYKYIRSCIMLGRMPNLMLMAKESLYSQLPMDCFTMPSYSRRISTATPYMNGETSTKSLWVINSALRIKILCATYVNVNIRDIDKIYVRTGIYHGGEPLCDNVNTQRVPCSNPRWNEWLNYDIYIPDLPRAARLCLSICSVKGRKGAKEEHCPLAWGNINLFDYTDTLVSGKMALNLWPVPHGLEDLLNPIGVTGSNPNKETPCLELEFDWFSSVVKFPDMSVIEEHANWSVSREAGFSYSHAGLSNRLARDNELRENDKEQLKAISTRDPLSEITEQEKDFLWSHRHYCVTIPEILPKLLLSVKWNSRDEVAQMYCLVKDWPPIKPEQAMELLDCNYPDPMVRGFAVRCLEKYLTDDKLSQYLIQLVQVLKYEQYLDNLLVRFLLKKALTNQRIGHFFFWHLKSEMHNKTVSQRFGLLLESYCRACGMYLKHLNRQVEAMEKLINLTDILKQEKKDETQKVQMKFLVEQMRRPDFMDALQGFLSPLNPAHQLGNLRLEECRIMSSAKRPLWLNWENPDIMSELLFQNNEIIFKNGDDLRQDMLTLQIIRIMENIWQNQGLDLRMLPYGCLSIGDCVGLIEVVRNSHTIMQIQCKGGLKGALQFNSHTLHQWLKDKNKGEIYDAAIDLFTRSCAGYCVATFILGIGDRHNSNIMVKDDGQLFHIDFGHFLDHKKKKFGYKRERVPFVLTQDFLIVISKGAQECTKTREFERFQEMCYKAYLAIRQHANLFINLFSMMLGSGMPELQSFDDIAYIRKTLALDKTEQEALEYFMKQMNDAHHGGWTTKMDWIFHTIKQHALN
Sequence of Phosphatidylinositol 4,5-bisphosphate 3-kinase catalytic subunit alpha isoform (P42336 whole entry, canonical isoform): as the sequence (P42336 whole entry) above

Structure (SMILES) | IC50 (Raji [1]) | IC50 (HL-60 [2]) | IC50 (K562 [3]) | inhibition [8] | further results
CCN(CC)CC(=O)Nc1ccc(-n2c(=O)ccc3oc4ccc(-c5ccc(OC)nc5)cc4c32)cc1 | 15.3 µM | 8.4 µM | 5.9 µM | – | –
COc1ccc(-c2ccc3oc4ccc(=O)n(-c5ccc([N+](=O)[O-])cc5)c4c3c2)cn1 | – | – | – | – | Activity (HL-60 [4]): inactive; Activity (Raji [5]): inactive; Activity (K562 [6]): 28.8%
C=CC(=O)Nc1ccc(-n2c(=O)ccc3oc4ccc(-c5cccc6[nH]ccc56)cc4c32)cc1 | 15.7 µM | 7.3 µM | 10.2 µM | – | –
C=CC(=O)N1CCc2ccc(-n3c(=O)ccc4cnc5ccc(-c6cnn(C)c6)cc5c43)cc21 | – | – | – | – | IC50 [7]: 0.69 µM
COc1ccc(-c2ccc3oc4ccc(=O)n(-c5ccc(NC(=O)C(F)(F)F)cc5)c4c3c2)cn1 | – | – | 17 µM | – | Activity (HL-60 [4]): 35.4%; Activity (Raji [5]): 10%
CCOC(=O)CNc1ccc(-n2c(=O)ccc3oc4ccc(-c5ccc(OC)nc5)cc4c32)cc1 | – | – | – | – | Activity (HL-60 [4]): 46%; Activity (Raji [5]): inactive; Activity (K562 [6]): 29.4%
COc1ccc(-c2ccc3oc4ccc(=O)n(-c5ccc(NC(=O)CN6CCNCC6)cc5)c4c3c2)cn1 | 5.84 µM | 5.5 µM | 1.3 µM | inactive | Reduction in Akt Ser-473 phosphorylation (K562 [9]): Active
C=CC(=O)N1CCC[C@@H](n2nc(-c3ccc(Oc4ccccc4)cc3)c3c(N)ncnc32)C1 [IBRUTINIB] | 14.2 µM | 8 µM | 7.5 µM | – | –
C=CC(=O)Nc1ccc(-n2c(=O)ccc3oc4ccc(-c5cccc(N)c5)cc4c32)cc1 | 5.3 µM | 10 µM | 6.9 µM | inactive | –
C=CC(=O)Nc1ccc(-n2c(=O)ccc3oc4ccc(-c5cccnc5)cc4c32)cc1 | 5.2 µM | 4.2 µM | 11.1 µM | 45.8% | IC50 [10]: 0.254 µM; IC50 [11]: 0.228 µM; IC50 [12]: 0.684 µM; IC50 [13]: 0.275 µM; IC50 [14]: 0.136 µM; Reduction in Akt Ser-473 phosphorylation (K562 [9]): Active; IC50 (PI3K p110 beta/p85 alpha): 0.838 µM
C=CC(=O)Nc1ccc(-n2c(=O)ccc3oc4ccc(-c5cnn(C)c5)cc4c32)cc1 | 2.4 µM | 12.6 µM | 9.6 µM | 4.8% | IC50 [14]: 0.217 µM; Reduction in Akt Ser-473 phosphorylation (K562 [9]): Active
C=CC(=O)Nc1ccc(-n2c(=O)ccc3oc4ccc(-c5cccc([N+](=O)[O-])c5)cc4c32)cc1 | 25 µM | 28.2 µM | – | – | Activity (K562 [6]): 39%
COc1ccc(-c2ccc3oc4ccc(=O)n(-c5ccc(NC(=O)CN6CCOCC6)cc5)c4c3c2)cn1 | 13.2 µM | 4 µM | 10 µM | 11.6% | IC50 [14]: 0.2 µM
COc1ccc(-c2ccc3oc4ccc(=O)n(-c5ccc(NCC(=O)O)cc5)c4c3c2)cn1 | 39.5 µM | 12.7 µM | – | – | Activity (K562 [6]): 46%
COc1ccc(-c2ccc3oc4ccc(=O)n(-c5ccc(N)cc5)c4c3c2)cn1 | – | – | – | – | Activity (HL-60 [4]): 21.5%; Activity (Raji [5]): 41.5%; Activity (K562 [6]): 17.6%
COc1ccc(-c2ccc3oc4ccc(=O)n(-c5ccc(NS(C)(=O)=O)cc5)c4c3c2)cn1 | 16.7 µM | 15.5 µM | 16.2 µM | – | –
Cn1c(=O)n(-c2ccc(C(C)(C)C#N)cc2)c2c3cc(-c4cnc5ccccc5c4)ccc3ncc21 [DACTOLISIB] | 4.3 µM | 1 µM | 5.7 µM | 64.4% | Reduction in Akt Ser-473 phosphorylation (K562 [9]): Active
COc1ccc(-c2ccc3ncc4c(c3c2)n(-c2ccc(N3CCNCC3)c(C(F)(F)F)c2)c(=O)n4C)cn1 [BGT-226 FREE BASE] | – | – | – | – | IC50 [15]: 0.004 µM; IC50 [16]: 0.063 µM; IC50 [17]: 0.038 µM
COc1ccc(-c2ccc3oc4ccc(=O)n(-c5ccc(NC(=O)CN6CCCC6)cc5)c4c3c2)cn1 | 11.3 µM | 5.4 µM | 6.5 µM | inactive | IC50 [14]: 0.183 µM
COc1ccc(-c2ccc3oc4ccc(=O)n(-c5ccc(NC(=O)CN(C)C)cc5)c4c3c2)cn1 | 12.8 µM | 4 µM | 4.1 µM | inactive | IC50 [14]: 0.237 µM; Reduction in Akt Ser-473 phosphorylation (K562 [9]): Active
COc1ccc(-c2ccc3oc4ccc(=O)n(-c5ccc(NC(C)=O)cc5)c4c3c2)cn1 | 39 µM | – | – | – | Activity (K562 [6]): 47.5%
CNCC(=O)Nc1ccc(-n2c(=O)ccc3oc4ccc(-c5ccc(OC)nc5)cc4c32)cc1 | 6.26 µM | 3.2 µM | 3.5 µM | – | –
C=CC(=O)Nc1ccc(-n2c(=O)ccc3oc4ccc(-c5ccc(OC)nc5)cc4c32)cc1 | – | 17.9 µM | 31 µM | inactive | Activity (Raji [5]): 35%; Reduction in Akt Ser-473 phosphorylation (K562 [9]): Active
COc1ccc(-c2ccc3oc4ccc(=O)n(-c5ccc(NC(=O)CN6CCCCC6)cc5)c4c3c2)cn1 | 8.01 µM | 4.9 µM | 2.6 µM | inactive | IC50 [14]: 0.106 µM; Reduction in Akt Ser-473 phosphorylation (K562 [9]): Active
C=CC(=O)Nc1ccc(-n2c(=O)ccc3oc4ccc(-c5ccc(O)cc5)cc4c32)cc1 | 3.9 µM | 3.9 µM | 5.7 µM | 4.2% | –
COc1ccc(-c2ccc3oc4ccc(=O)n(-c5ccc(NC(=O)CN6CCN(C)CC6)cc5)c4c3c2)cn1 | 9.72 µM | 3.2 µM | 4.7 µM | inactive | IC50 [14]: 0.139 µM
C=CC(=O)Nc1ccc(-n2c(=O)ccc3oc4ccc(-c5ccc(OC)cc5)cc4c32)cc1 | – | – | – | – | Activity (Raji [5]): inactive; Activity (K562 [6]): 28.3%
C=CC(=O)Nc1ccc(-n2c(=O)ccc3oc4ccc(-c5ccc(C(=O)O)cc5)cc4c32)cc1 | – | – | – | – | Activity (HL-60 [4]): 22.2%; Activity (Raji [5]): 38%; Activity (K562 [6]): inactive
